Measurements from article PMC9272005, “Genome-Wide Expression Analysis of Glyoxalase I Genes Under Hyperosmotic Stress and Existence of a Stress-Responsive Mitochondrial Glyoxalase I Activity in Durum Wheat (Triticum durum Desf.)” (Frontiers in Plant Science, 2022).

Target: T1, DWM-GLYI (mitochondrial glyoxalase I)
T1 construct: native activity in Triton X-100-lysed purified mitochondria; isoform not identified
Assay: spectrophotometric GLYI activity assay ([…] nm) in lysed mitochondria, inhibition kinetics
Assay type: biochemical, Triticum turgidum subsp. durum

| SMILES | Ki |
| --- | --- |
| COc1cc(/C=C/C(=O)CC(=O)/C=C/c2ccc(O)c(OC)c2)ccc1O [curcumin] | 20 ± 3.5 µM |
| O=c1c(O)c(-c2ccc(O)c(O)c2)oc2cc(O)cc(O)c12 [quercetin] | 55 ± 7.5 µM |
